Structures are written as SMILES. Activity calls are given as the source filed them.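 How the source made its calls: active means mean EC50 below 100 µM; inactive means the rest.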

Chain of Intestinal-type alkaline phosphatase (Homo sapiens) (P09923 whole entry, looked up): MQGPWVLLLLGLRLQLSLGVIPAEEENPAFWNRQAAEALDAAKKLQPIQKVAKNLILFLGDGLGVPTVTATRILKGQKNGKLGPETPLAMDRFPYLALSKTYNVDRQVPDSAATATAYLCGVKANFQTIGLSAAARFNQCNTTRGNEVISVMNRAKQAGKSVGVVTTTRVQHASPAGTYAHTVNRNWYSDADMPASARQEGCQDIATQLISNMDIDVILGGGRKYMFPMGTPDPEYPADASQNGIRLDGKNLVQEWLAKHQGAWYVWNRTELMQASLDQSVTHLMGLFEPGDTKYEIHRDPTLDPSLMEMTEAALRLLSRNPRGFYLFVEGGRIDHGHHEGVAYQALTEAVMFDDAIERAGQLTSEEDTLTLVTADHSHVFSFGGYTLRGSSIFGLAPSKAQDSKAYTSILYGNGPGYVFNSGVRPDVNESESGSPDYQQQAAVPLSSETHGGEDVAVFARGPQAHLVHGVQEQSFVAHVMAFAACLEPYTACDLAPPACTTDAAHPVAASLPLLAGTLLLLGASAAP

The experiment concerns the target Intestinal-type alkaline phosphatase (Homo sapiens) (UniProt P09923). The experiment in a line: human IAP enzyme activators, SAR follow-up, selectivity assay for mouse IAP activator project, biochemical, luminescence, set 2 (AID 588611). Particulars: purified human IAP, CDP-Star luminescence, 30 min.
With `Cc1ccccc1CNC(=S)Nc1ccc(S(=O)(=O)N(C)C)cc1`, the EC50 was > 100 µM (inactive).

Consider `CN(C)S(=O)(=O)c1cccc(NC(=S)NCCc2ccc(F)cc2)c1`, for which the EC50 was > 100 µM (inactive).

For `O=C(CCc1ccccc1)NC(=S)Nc1cccc(S(=O)(=O)N2CCCC2)c1`, the EC50 is > 100 µM (inactive).

On to `CN(C)S(=O)(=O)c1cccc(NC(=S)NCCc2cccc(O)c2)c1`, for which the EC50 was > 100 µM (inactive).

Regarding `CN(C)S(=O)(=O)c1cccc(NC(=S)NCCc2cccc(F)c2)c1`, the EC50 was > 100 µM (inactive).

On to `CN(C)S(=O)(=O)c1ccc(NC(=S)NC(c2ccccc2)c2ccccc2)cc1`, for which the EC50 was 62.4 µM.

In the case of `COc1ccc(CCNC(=S)Nc2ccc(S(=O)(=O)N3CCCCC3)cc2)cc1`, the EC50 was 77.2 µM.

In the case of `CCN(CC)c1ccc(C(=O)NC(=S)Nc2cc(S(=O)(=O)N3CCOCC3)ccc2-n2cncn2)cc1`, the EC50 is > 100 µM (inactive).

On to `COc1ccccc1CNC(=S)Nc1ccc(S(=O)(=O)N(C)C)cc1`, for which the EC50 was > 100 µM (inactive).

`Cc1ccc(S(=O)(=O)N(C)C)cc1NC(=S)NC(C)CCC(C)C` (centres undefined): the EC50 was 66.6 µM.

In the case of `O=S(=O)(c1ccc(NC(=S)NCc2cccc(F)c2)cc1)N1CCCCC1`, the EC50 was 76.8 µM.

Consider `Cc1ccc(S(=O)(=O)N(C)C)cc1NC(=S)NC1CCN(Cc2ccccc2)CC1`, for which the EC50 was > 100 µM (inactive).

Turning to `O=c1c2ccccc2[nH]c(=S)n1-c1cccc(S(=O)(=O)N2CCCC2)c1`, the EC50 is > 100 µM (inactive).

As to `O=S(=O)(c1ccc(NC(=S)NC(c2ccccc2)c2ccccc2)cc1)N1CCCCC1`, the EC50 is 68.7 µM.

Consider `CN(C)S(=O)(=O)c1ccc(NC(=S)NCCC(c2ccccc2)c2ccccc2)cc1`, for which the EC50 was 57.2 µM.

On to `O=S(=O)(c1ccc(NC(=S)NC(c2ccccc2)c2ccccc2)cc1)N1CCCC1`, for which the EC50 was 58.2 µM.

For the compound `CN(CCc1ccccn1)C(=S)Nc1cccc(S(=O)(=O)N(C)C)c1`, the EC50 is > 100 µM (inactive).

As for `CN(C)S(=O)(=O)c1cccc(NC(=S)NCC(c2ccccc2)c2ccccc2)c1`, the EC50 was 39.4 µM.

In the case of `CN(C)S(=O)(=O)c1ccc(NC(=S)NCCc2cccc(O)c2)cc1`, the EC50 was > 100 µM (inactive).

Consider `CCN(CC)S(=O)(=O)c1ccc(NC(=S)NCC(c2ccccc2)c2ccccc2)cc1`, for which the EC50 was 55.5 µM.

For the compound `COc1ccc(CCNC(=S)Nc2ccc(S(=O)(=O)N3CCCCC3)cc2)cc1OC`, the EC50 is > 100 µM (inactive).

With `CN(C)S(=O)(=O)c1cccc(NC(=S)NCCCN2CCCC2=O)c1`, the EC50 was > 100 µM (inactive).

As to `CN(C)S(=O)(=O)c1cccc(NC(=S)NCCc2cccc(Br)c2)c1`, the EC50 was 65 µM.

For `COc1cccc(CNC(=S)Nc2ccc(S(=O)(=O)N(C)C)cc2)c1`, the EC50 was > 100 µM (inactive).

As to `CN(CCc1ccccc1)C(=S)Nc1cccc(S(=O)(=O)N(C)C)c1`, the EC50 was > 100 µM (inactive).

Regarding `CN(C)S(=O)(=O)c1cccc(NC(=S)NCCN2CCCC2)c1`, the EC50 is > 100 µM (inactive).

Regarding `Cc1ccc(CNC(=S)Nc2ccc(S(=O)(=O)N(C)C)cc2)cc1`, the EC50 was 89.6 µM.

`CN(C)S(=O)(=O)c1ccc(NC(=S)NCCc2cccc(Br)c2)cc1`: the EC50 was 73.7 µM.

`O=S(=O)(c1ccc(NC(=S)NCCC(c2ccccc2)c2ccccc2)cc1)N1CCCCC1`: the EC50 was 53 µM.

Turning to `CCN(CC)CCCNC(=S)Nc1cccc(S(=O)(=O)N(C)C)c1`, the EC50 was > 100 µM (inactive).

Consider `CN(C)S(=O)(=O)c1cccc(NC(=S)NCCC(c2ccccc2)c2ccccc2)c1`, for which the EC50 was > 100 µM (inactive).

On to `CN(C)S(=O)(=O)c1cccc(NC(=S)NCCC(=O)N2CCCC2)c1`, for which the EC50 is > 100 µM (inactive).

Consider `CN(C)CCCNC(=S)Nc1cccc(S(=O)(=O)N(C)C)c1`, for which the EC50 is > 100 µM (inactive).

As for `O=S(=O)(c1ccc(NC(=S)NCC(c2ccccc2)c2ccccc2)cc1)N1CCCCC1`, the EC50 is 72.1 µM.

In the case of `CN(C)S(=O)(=O)c1cccc(NC(=S)NC(c2ccccc2)c2ccccc2)c1`, the EC50 is 34 µM.

Turning to `O=C(NC(=S)Nc1cc(S(=O)(=O)N2CCOCC2)ccc1N1CCOCC1)c1ccco1`, the EC50 is > 100 µM (inactive).

For `O=S(=O)(c1ccc(NC(=S)NCC(c2ccccc2)c2ccccc2)cc1)N1CCCC1`, the EC50 was 58.5 µM.

With `CC1CCN(S(=O)(=O)c2ccc(NC(=S)NCCC(c3ccccc3)c3ccccc3)cc2)CC1`, the EC50 was 53.1 µM.

Consider `Cc1ccc(C)c(NC(=S)Nc2ccc(S(=O)(=O)N3CCCCC3)cc2)c1`, for which the EC50 is > 100 µM (inactive).

Consider `CN(C)S(=O)(=O)c1cccc(NC(=S)NCCc2ccc(Br)cc2)c1`, for which the EC50 is 84.5 µM.

Take `COc1cccc(CCNC(=S)Nc2cccc(S(=O)(=O)N(C)C)c2)c1`: the EC50 is 82 µM.

Regarding `CC(CCc1ccccc1)NC(=S)Nc1cccc(S(=O)(=O)N(C)C)c1` (centres undefined), the half-maximal effective concentration (EC50) was 69.4 µM.

On to `CCOc1cc(CCNC(=S)Nc2ccc(S(=O)(=O)N(C)C)cc2)ccc1OC`, for which the EC50 was > 100 µM (inactive).

Take `CN(C)S(=O)(=O)c1ccc(NC(=S)NCCN2CCCC2)cc1`: the EC50 is > 100 µM (inactive).

With `COc1ccc(CNC(=S)Nc2ccc(S(=O)(=O)N3CCCCC3)cc2)cc1OC`, the EC50 was > 100 µM (inactive).

As to `CN(C)S(=O)(=O)c1cccc(NC(=S)NCc2ccc(Cl)cc2)c1`, the EC50 is 75.5 µM.

For the compound `CN(C)CC(C)(C)CNC(=S)Nc1cccc(S(=O)(=O)N(C)C)c1`, the EC50 is > 100 µM (inactive).

As for `CN(C)S(=O)(=O)c1ccc(NC(=S)NCCc2ccccc2)cc1`, the EC50 was > 100 µM (inactive).

With `CC1CCN(S(=O)(=O)c2ccc(NC(=S)NCC(c3ccccc3)c3ccccc3)cc2)CC1`, the EC50 is > 100 µM (inactive).

For `CCN(CC)S(=O)(=O)c1ccc(NC(=S)NCCC(c2ccccc2)c2ccccc2)cc1`, the EC50 was 41.3 µM.

With `CN(C)S(=O)(=O)c1cccc(NC(=S)NCCc2ccccc2)c1`, the EC50 was > 100 µM (inactive).

For `O=C(NC(=S)Nc1cc(S(=O)(=O)N2CCOCC2)ccc1O)c1ccco1`, the EC50 is > 100 µM (inactive).

Consider `CC1CCN(S(=O)(=O)c2ccc(NC(=S)NC(c3ccccc3)c3ccccc3)cc2)CC1`, for which the EC50 is > 100 µM (inactive).

Turning to `CCN(CC)S(=O)(=O)c1ccc(NC(=S)NC(c2ccccc2)c2ccccc2)cc1`, the concentration giving a half-maximal response (EC50) was 63.7 µM.

As to `Cc1ccc(S(=O)(=O)N(C)C)cc1NC(=S)NC(=O)C12CC3CC(CC(C3)C1)C2`, the EC50 was > 100 µM (inactive).

On to `Cc1ccc(S(=O)(=O)N(C)C)cc1NC(=S)NCCCn1ccnc1`, for which the EC50 was > 100 µM (inactive).

In the case of `CN(C)S(=O)(=O)c1ccc(NC(=S)NCc2ccc(Cl)cc2)cc1`, the EC50 was > 100 µM (inactive).

As for `CC(CNC(=S)Nc1cccc(S(=O)(=O)N(C)C)c1)N1CCN(c2ccccc2)CC1` (centres undefined), the EC50 is > 100 µM (inactive).

On to `CN(C)S(=O)(=O)c1cccc(NC(=S)NC(C)(C)CC(C)(C)C)c1`, for which the EC50 was 70.7 µM.

On to `CC1CC(NC(=S)Nc2cccc(S(=O)(=O)N(C)C)c2)CC(C)N1` (centres undefined), for which the EC50 is > 100 µM (inactive).

Take `Cc1ccc(CNC(=S)Nc2cccc(S(=O)(=O)N(C)C)c2)cc1`: the EC50 is > 100 µM (inactive).

As for `O=S(=O)(c1ccc(NC(=S)NCCC(c2ccccc2)c2ccccc2)cc1)N1CCCC1`, the EC50 is 62.2 µM.

Turning to `CN(C)S(=O)(=O)c1cccc(NC(=S)NCCCn2ccnc2)c1`, the EC50 is > 100 µM (inactive).

Consider `Cc1ccc(S(=O)(=O)N(C)C)cc1NC(=S)NC(C)CCCC(C)C` (centres undefined), for which the EC50 is 58 µM.

The values above are taken from PubChem BioAssay AID588611 (Sanford-Burnham Center for Chemical Genomics, 2011).
